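Cells were grown in 96-well plates and exposed to each compound for 48 hours at five concentrations; endpoints were interpolated linearly between bracketing concentrations, or set to the highest concentration if not reached. GI50 marks 50% less growth. TGI: concentration producing complete growth inhibition.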
Assays:
Test in all cases: DTP human tumour cell line panel, 48 h
[1] = system: MDA-N
[2] = system: T-47D breast
[3] = system: NCI-H522 lung
[4] = system: U251 CNS
[5] = system: TK-10 renal
[6] = system: EKVX NSCLC
[7] = system: SR leukemia
[8] = system: HCT-15 colon
[9] = system: SK-OV-3 ovarian
[10] = system: OVCAR-3 ovarian

Compound | TGI [1] | TGI [2] | TGI [3] | TGI [4] | TGI [5] | TGI [6] | TGI [7] | TGI [8] | TGI [9] | TGI [10] | GI50 [9]
CC1=NN(c2cc(Cl)c(S(=O)(=O)O)cc2Cl)C2(C1)C(Cl)C(=O)N2c1nc2ccccc2s1 (stereo not drawn) | > 100 µM | > 100 µM | 71.2 µM | > 100 µM | > 100 µM | > 100 µM | > 100 µM | > 100 µM |  |  | 
O=C(O)C1C2OC(C(Br)C2Br)C1C(=O)O (stereo not drawn) | > 100 µM | > 100 µM | > 100 µM | > 100 µM | > 100 µM | > 100 µM |  | > 100 µM | > 100 µM | > 100 µM | 
CCOC(=O)/C=C(/OCC)[C@@H]1C(C(=O)c2ccc(Cl)cc2)[C@@H]1/C(=C\C(=O)OCC)OCC (stereo partly drawn) | > 100 µM | > 100 µM | > 59.2 µM | > 100 µM | 43.6 µM | > 100 µM | > 100 µM | > 100 µM | > 100 µM | > 100 µM | 
CC[P+](c1ccccc1)(N(C)C)N(C)C | > 100 µM | > 100 µM | > 100 µM | > 100 µM | > 100 µM | > 100 µM | > 100 µM | > 100 µM | > 100 µM | > 100 µM | 
CCOC(=O)/C(=C/c1cn(C(C)=O)c2ccccc12)P(=O)(OC)OC |  | 60.5 µM | 79.3 µM | > 100 µM | > 100 µM |  | 73.8 µM | > 100 µM | > 100 µM | 64.8 µM | 
C[C@]12CC[C@H]3[C@@H](CCC4=C/C(=N/OCCN5CCCCC5)CC[C@@]43C)[C@@H]1CC[C@@H]2O | 34.5 µM | > 100 µM | 36.1 µM | 27.1 µM | 35 µM | > 100 µM |  | 21.2 µM | 30.3 µM | 32 µM | 
CN(CC(=O)O)c1ncc2c(n1)-c1ccccc1CC2 | > 100 µM |  | > 100 µM | > 100 µM | > 100 µM | > 100 µM | > 100 µM | > 100 µM | > 100 µM | > 100 µM | 
CCOC(=O)NCC(=O)NCC(=O)NCC(N)=O | > 100 µM | > 100 µM | > 100 µM | > 100 µM | > 100 µM | > 100 µM | > 100 µM | > 100 µM | > 100 µM | > 100 µM | 
COC(=O)c1c2c(cc3c1CC1(Cc4cc5c(cc4C1)CCCC5)C3)CCCC2 | > 100 µM | > 100 µM | > 100 µM | > 100 µM | > 100 µM | > 100 µM | > 100 µM | > 100 µM | > 100 µM | > 100 µM | 
COc1ccccc1-c1cc(=O)c2cccnc2[nH]1 | 56.7 µM | > 100 µM | > 100 µM | > 100 µM | > 100 µM | > 100 µM | > 100 µM | > 100 µM | > 100 µM | > 100 µM | 
C=C(CCC(=O)N(CCc1c[nH]c2ccccc12)C(=O)c1ccccc1CSCC)C(=O)OC | > 100 µM | > 100 µM | > 100 µM | > 100 µM | > 100 µM | > 100 µM | > 100 µM | > 100 µM | > 100 µM | > 100 µM | 
O=c1c2ccccc2n2nnc3ccc(NCCNCCO)c1c32 | 10.3 µM | 29.1 µM | 7.23 µM | 6.73 µM | 9.4 µM | 8.87 µM | 8.05 µM | 9.42 µM | 16.5 µM | 5.81 µM | 
COc1cc(C2C3=C(NC(=O)C2C#N)c2ccc4ccccc4c2OCC3)cc(OC)c1OC (stereo not drawn) |  | 62.5 µM | > 100 µM | 30.4 µM | > 100 µM | > 100 µM |  | > 100 µM | 62.4 µM | > 100 µM | 
CCOC(=O)CSc1nc(-c2ccc(Cl)cc2)c(C#N)c(=O)[nH]1 |  | > 100 µM | > 100 µM | > 100 µM | > 100 µM | > 100 µM |  | > 100 µM | > 100 µM | > 100 µM | 
Cc1cc(C)n(C(=CC(=O)C(Cl)Cl)n2nc(C)cc2C)n1 |  | 28.6 µM | 7.76 µM | 20.4 µM | 15.1 µM |  | 5.69 µM | 10.7 µM | > 100 µM | 16.1 µM | 
CC(=O)CCN1CC2CN=NC2(C#N)C1 (stereo not drawn) | > 100 µM | > 100 µM | > 20.9 µM | > 100 µM | > 100 µM | > 100 µM | > 100 µM | > 100 µM | > 100 µM | > 100 µM | > 100 µM
O=c1[nH]c2ccccc2c(=O)n1/N=C\c1ccccc1O | > 100 µM | > 100 µM |  | > 100 µM | > 100 µM | > 100 µM | > 100 µM | > 100 µM | > 100 µM | > 100 µM | 
Nc1ccc2c3c1cccc3c(=O)n1c3ccc(Cc4ccc5c(c4)nc4c6ccc(N)c7cccc(c(=O)n54)c76)cc3nc21 | > 100 µM |  | > 100 µM | > 100 µM |  | > 100 µM | > 100 µM |  | > 100 µM | > 100 µM | 
CC(=O)N1CN2C(=O)CCC2c2cc(C)ccc21 (stereo not drawn) | > 100 µM | > 100 µM | > 100 µM | > 100 µM | > 100 µM | > 100 µM |  | > 100 µM | > 100 µM | > 100 µM | 
CN(C)CCCNC(=O)N/N=C/c1ccccn1 | > 10 µM | > 10 µM | > 10 µM |  | > 10 µM | > 10 µM | > 10 µM | > 10 µM | > 10 µM |  | 
O=C(c1ccccc1)C1C(c2ccccc2[N+](=O)[O-])N1C1CCCCC1 (stereo not drawn) | 19.7 µM | 7.57 µM | 5.9 µM | 18.5 µM | 7.4 µM | 30.8 µM |  | 23 µM | > 60.9 µM | 7.82 µM | 
CN(Cc1ccccc1)C(=S)S | > 100 µM | > 100 µM | > 100 µM | > 100 µM |  | > 100 µM | 59.7 µM | > 100 µM | > 100 µM | > 100 µM | 
COc1cc(/C=C2\C(=O)N(c3ccc(Cl)cc3)C(c3ccccc3)S2(=O)=O)cc(OC)c1OC (stereo not drawn) | 20.1 µM | > 100 µM | 60.5 µM | > 100 µM | > 100 µM | > 100 µM |  | > 100 µM | > 100 µM | > 100 µM | 

Source: PubChem BioAssay (NCI)
